Experiment [1] deals with Acyl-protein thioesterase 1 (Homo sapiens) (UniProt O75608). As to the kind of experiment: APT1/APT2 inhibition IC50 by competitive ABPP – cell lysate, HeLa soluble proteome, fluorescence gel, in vitro, late-stage follow-up (AID 743118). The settings on record: gel-based ABPP FP-Rh fluorescence, LYPLA1.
The target in experiment [2] is Acyl-protein thioesterase 2 (Homo sapiens) (UniProt O95372). Described as above. The settings on record: gel-based ABPP FP-Rh fluorescence, LYPLA2.
Chain of Acyl-protein thioesterase 2 (Homo sapiens) (O95372 whole entry, looked up): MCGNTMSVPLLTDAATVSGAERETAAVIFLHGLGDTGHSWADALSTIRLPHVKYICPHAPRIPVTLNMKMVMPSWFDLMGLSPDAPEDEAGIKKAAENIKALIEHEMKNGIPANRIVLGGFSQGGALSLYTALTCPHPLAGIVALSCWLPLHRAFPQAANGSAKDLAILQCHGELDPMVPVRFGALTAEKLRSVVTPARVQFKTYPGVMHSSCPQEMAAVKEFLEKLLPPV

The structures appear in SMILES notation.

Chain of Acyl-protein thioesterase 1 (Homo sapiens) (O75608 whole entry, looked up): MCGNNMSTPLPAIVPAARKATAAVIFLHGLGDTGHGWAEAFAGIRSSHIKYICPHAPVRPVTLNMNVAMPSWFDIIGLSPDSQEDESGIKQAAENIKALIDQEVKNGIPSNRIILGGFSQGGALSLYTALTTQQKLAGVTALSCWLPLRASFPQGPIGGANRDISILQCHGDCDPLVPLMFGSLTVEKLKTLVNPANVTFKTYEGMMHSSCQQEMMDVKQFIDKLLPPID

Consider `O=C(ON1C(=O)C2CN(C(=O)N3CCCCC3)CCN2C1=O)N1CCC(CCc2ccc(Cl)cc2)CC1` (stereo not given), for which the IC50 in experiment [1] was 154 nM; in experiment [2] it was 258 nM.

As for `CC(C)(C)CC(=O)N1CCN2C(=O)N(OC(=O)N3CCC(CCc4ccc(Cl)cc4)CC3)C(=O)C2C1` (stereo not given), the IC50 in experiment [1] was 92 nM; in experiment [2], 217 nM.

With `O=C(ON1C(=O)C2CN(C(=O)N3CCOCC3)CCN2C1=O)N1CCC(CCc2ccc(Cl)cc2)CC1` (stereo not given), the IC50 in experiment [1] was 122 nM; in experiment [2] it was 245 nM.

Turning to `O=C(ON1C(=O)C2CN(C(=O)c3ccc(Br)cc3)CCN2C1=O)N1CCC(CCc2ccc(Cl)cc2)CC1` (stereo not given), the values for the IC50 in experiment [1] and in experiment [2] were 306 nM and 726 nM, respectively.

On to `O=C(ON1C(=O)C2CN(C(=O)N3CCCC3)CCN2C1=O)N1CCC(CCc2ccc(Cl)cc2)CC1` (stereo not given), for which the IC50 in experiment [1] is 225 nM; in experiment [2], 384 nM.

As a reminder, the IC50 is the midpoint of a concentration-inhibition curve.
